“Also recorded” adds a separate entry of the source.
What was measured:
TSP-1:CD47 = assay: Co-immunoprecipitation TSP-1:CD47 in HUVECs; type: cell-based, human; conditions: 100 μM vs scrambled peptide 100 μM, n = 3
Procedure: Figure 2 TAX2 peptide impairs endothelial cell migration and inhibits angiogenesis in vitro and ex vivo A. HUVECs were treated with TAX2 (100 μM) or scrambled peptide (Ctrl, 100 μM). CD47 was immunoprecipitated from total protein lysates using anti-CD47 (clone B6H12) and non-specific IgGs were used as a negative control. Immunocomplexes were then submitted to SDS-PAGE and immunoblotted (IB) using specific TSP-1 and CD47 antibodies. Histogram represents the quantification of co-immunoprecipitated TSP-1 relative to immunoprecipitated CD47. Results are expressed as percentage compared to control (n = 3 separate experiments, t test). B. HUVECs (1 × 10^5 per well) were grown at confluence and then cell proliferation was inhibited by incubating with 10 μg/mL mitomycin C for 2 h. […] Graph represents the quantification of the wounded area. […] Hoechst-stained migrating cells attached on outside surface of the top chamber were photographed (20× objective) and counted. Results are expressed as percentage of migrated cells as compared to control. […] After 8 h incubation, HUVEC tube-like formation was observed on an inverted microscope (40×) and quantification of network total length was done using ImageJ software. […] Data are expressed as the mean ± SE from at least 3 independent experiments, each performed in triplicate. […] The transcriptional level of TSP-1 was assessed by RT-PCR and normalized to β-actin. […]

C57BL/6 mice = assay: Tolerability in melanoma-bearing mice (μCT of healthy organs, dissection); type: in vivo, mouse; conditions: 10 mg/kg i.p. days 3, 5, 7, dissections, data not shown
Procedure: For the subcutaneous melanoma tumor model, suspensions of B16F1 cells (2.5 × 10^5 cells in 100 μL RPMI-1640 medium) were subcutaneously injected into the left flank of different randomized series of syngeneic C57BL/6 mice (n = 8–10 per group), as previously described. Intraperitoneal administrations of peptide (10 mg/kg mouse weight) or controls (physiological serum 0.9% (w/v) NaCl or a scrambled peptide) were performed at days 3, 5 and 7. In human pancreatic carcinoma xenograft experiments, 3 × 10^6 MIA PaCa-2 cells/mouse were implanted subcutaneously into the left flank of BALB/C athymic nude mice, then TAX2 intraperitoneal treatments (10 mg/kg mouse weight) were performed 3 times a week during 4 weeks starting at day 10 after tumor cells inoculation. Tumor volume was determined according to v = 0.5 A × B^2, where A denotes the largest dimension of the tumor and B represents the smallest dimension. […]
Animals were anesthetized by isoflurane (Forene, Abbott France, Rungis, France) inhalation (3% for induction and 1–1.5% for maintenance) and then after placed in a carbon fibers bed. […] Analysis of reconstructed images and quantification of the vascular network were performed using Amira 5.4.3 software.

Sequence: CEVSQLLKGDAC (disulfide) [TAX2, CD47-derived cyclic disulfide dodecapeptide …]
- TSP-1 binding to CD47 (co-immunoprecipitation) (TSP-1:CD47): specifically prevents TSP-1 binding to CD47
- thrombosis, hemorrhage or embolism in melanoma-bearing mice (C57BL/6 mice): neither μCT imaging of healthy organs nor mice dissections highlighted any sign of thrombosis, hemorrhage or embolism; also recorded: no signs of thrombosis, hemorrhage or embolism were observed in healthy organs
